The values that follow are results of earlier work, collected in article PMC8497432 (ChemMedChem, 2021).

For the data set the following is noted: ref 6f.

Regarding UNC3866, the cell permeability entry is “approximately 5%”.
